The values that follow come from ChEMBL document CHEMBL1201862, “PubChem BioAssay data set” (2004).

SMILES strings stand for the structures.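 How tested: cells in 96-well plates exposed to compound for 48 hours at five concentrations. GI50 = concentration required for 50% inhibition of growth.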 Calls of active or inactive are those of the source. No stated cut-off is given here; in the data, active = GI50 up to about 1.1 µM and inactive = higher.

Test systems include UACC-257; ACHN; K562; OVCAR-5; NCI-H226; PC-3; HT-29; A498; NCI-H460; MOLT-4; OVCAR-3; 786-0; Malme-3M; U-251; COLO 205; UO-31; HOP-62; SK-OV-3; EKVX; UACC-62.
Test in all cases: inhibition of tumour cell growth, NCI panel, 48 h

As to `Clc1ccc(Cc2nc3cc(Cl)c(Cl)cc3n2CC2CCCN3CCCCC23)cc1` (stereo not given), the GI50 is 3.81 µM (inactive) in the test with UACC-257; 10.1 µM (inactive) in the test on ACHN; 7.41 µM (inactive) in the test with K562; 12.8 µM (inactive) with OVCAR-5; 17.3 µM (inactive) in the test on NCI-H226; 9.04 µM (inactive) in the test with PC-3. For the same compound, the GI50 in the test with HT-29 was 3.33 µM (inactive); in the test with A498, 14.4 µM (inactive); in the test with NCI-H460, 7.53 µM (inactive); in the test on MOLT-4, 4.22 µM (inactive); in the test with OVCAR-3, 11 µM (inactive); in the test on 786-0, 11 µM (inactive). Further, the GI50 in the test on Malme-3M is 7.87 µM (inactive); in the test with U-251, 8.11 µM (inactive); in the test with COLO 205, 10.3 µM (inactive); with UO-31, 0.285 µM (active); with HOP-62, 18.5 µM (inactive); in the test with SK-OV-3, 16.9 µM (inactive). In addition, the GI50 with EKVX was 10.3 µM (inactive); in the test with UACC-62 it was 7.8 µM (inactive).

On to `Nc1ccc(-c2nc3ccccc3s2)cc1`, for which the GI50 in the test on UACC-257 is 22 µM (inactive); in the test with ACHN, 15.7 µM (inactive); in the test with K562 it was 21.9 µM (inactive); in the test with OVCAR-5, 18.7 µM (inactive); in the test on NCI-H226 it was 25.3 µM (inactive); with PC-3, 14.9 µM (inactive). Moreover, the GI50 in the test on HT-29 is 19.4 µM (inactive); with A498 it was 29.7 µM (inactive); with NCI-H460, 20.8 µM (inactive); in the test with MOLT-4 it was 23.1 µM (inactive); with OVCAR-3, 13.3 µM (inactive); in the test on 786-0 it was 16.2 µM (inactive). In addition, the GI50 is 17.6 µM (inactive) with Malme-3M; 17.4 µM (inactive) in the test with U-251; 23.8 µM (inactive) with COLO 205; 12.6 µM (inactive) with UO-31; 36.9 µM (inactive) in the test with HOP-62; 45.5 µM (inactive) in the test on SK-OV-3. In addition, the values for the GI50 in the test on EKVX and in the test with UACC-62 were 33.2 µM (inactive) and 18.4 µM (inactive), respectively.
